These results are taken from ChEMBL document CHEMBL3217721 (Medchemcomm, 2012).

The test system of one test is NCI-H460. The test can be described thus: Growth inhibition of human NCI-H460 cells by sulforhodamine B assay. Type of test: functional.
A further test relates to DU-145. The test can be described thus: Growth inhibition of human DU145 cells by sulforhodamine B assay. Type of test: functional.
For the next test, the system named is SK-OV-3. The test can be described thus: Growth inhibition of human SKOV3 cells by sulforhodamine B assay. Type of test: functional. Background: The SRB assay estimates cell density from bound dye.
Test [1] deals with T1, Tubulin (Homo sapiens) (UniProt P68371+Q9H4B7+P0DPH7+P68366+Q13509+Q71U36+P04350+Q3ZCM7+P07437+P68363+Q9BQE3+Q6PEY2+Q13885+Q9BVA1+Q9BUF5). The test can be described thus: Displacement of [3H]-Colchicine from tubulin (unknown origin) at 1 uM relative to control. In kind it is protein-complex assay. For orientation: In a radioligand displacement assay an active substance lowers the binding of a labelled ligand.

The target of test [2] is T1, Tubulin (Homo sapiens). The test can be described thus: Displacement of [3H]-Colchicine from tubulin (unknown origin) at 5 uM relative to control. In kind it is protein-complex assay.
The test system of test [3] is HUVEC. The test can be described thus: Vascular disrupting activity in HUVEC assessed as cell rounding at 0.1 to 1 uM after 2 hrs by matrigel assay. Type of test: functional, cell-based. Particulars: Homo sapiens.
Test [4] concerns HUVEC. The test can be described thus: Vascular disrupting activity in HUVEC assessed as disruption of capillary-like network of tubules after 2 hrs by matrigel assay. In kind it is functional, cell-based. The settings on record: Homo sapiens.
The test system of test [5] is HUVEC. The test can be described thus: Vascular disrupting activity in HUVEC assessed as disruption of capillary-like network of tubules at 0.01 to 1 uM after 2 hrs by matrigel assay. Particulars: Homo sapiens. In kind it is functional, cell-based.
The target of another test is Tubulin (Bos taurus, UniProt Q6B856+Q862L2+Q862F3). The test can be described thus: Inhibition of bovine brain tubulin polymerization after 20 mins by spectrophotometric analysis.
Test [6] concerns HUVEC. The test can be described thus: Vascular disrupting activity in HUVEC assessed as cell rounding at 1 uM after 2 hrs by matrigel assay. In kind it is functional, cell-based. The settings on record: Homo sapiens.
The test system of test [7] is HUVEC. The test can be described thus: Vascular disrupting activity in HUVEC assessed as disruption of capillary-like network of tubules at 1 uM after 2 hrs by matrigel assay. Type of test: functional, cell-based. The settings on record: Homo sapiens.
In test [8] the test system is HUVEC. The test can be described thus: Vascular disrupting activity in HUVEC assessed as disruption of capillary-like network of tubules at 0.01 to 0.1 uM after 2 hrs by matrigel assay. In kind it is functional, cell-based. The settings on record: Homo sapiens.

Active and inactive are the calls of the source. The calls are words filed in the database; no cut-off is given here.

As to `COc1ccc(/C=C\c2cc(OC)c(OC)c(OC)c2)c(O)c1O` [COMBRETASTATIN A-1], the 50% growth inhibitory concentration (GI50) (as a rule, the concentration that inhibits growth by half) came out at 15 nM in the test with NCI-H460; 33 nM with DU-145 (Homo sapiens, DU-145); 38 nM in the test with SK-OV-3.

`COc1ccc2c(c1N)CCCC=C2c1cc(OC)c(OC)c(OC)c1` [listing 1 of 3 here]: the inhibition (as a rule, the change of the read-out against control, counted positive when it falls) was 65% at Tubulin (Homo sapiens) [1] and 91% at Tubulin (Homo sapiens) [2]. In the test with HUVEC [3], the outcome was Active. In addition, in the test with HUVEC [4], the Activity entry is “Dose-dependent effect”.

For `COc1ccc2c(c1N)CCCC=C2c1cc(OC)c(OC)c(OC)c1` [listing 2 of 3 here], it took 3.53 nM to inhibit growth in the test on DU-145 by half (GI50).

As to `COc1ccc(/C=C\c2cc(OC)c(OC)c(OC)c2)cc1O` [COMBRETASTATIN A4], the 50% growth inhibitory concentration (GI50) with NCI-H460 was found to be 2.8 nM; in the test with DU-145 (Homo sapiens, DU-145) it was 0.54 nM; with SK-OV-3, 0.42 nM. Moreover, the outcome in the test on HUVEC [5] was Active.

For `COc1ccc2c(c1N)CCCC=C2c1cc(OC)c(OC)c(OC)c1` [listing 3 of 3 here], the IC50 (as a rule, the concentration that gives 50% inhibition) on Tubulin came out at 1200 nM. The 50% growth inhibitory concentration (GI50) came out at 1.11 nM with DU-145 and 0.0329 nM with SK-OV-3.

In the case of `COc1cc(C2=CCCCc3c2ccc(OC)c3[N+](=O)[O-])cc(OC)c1OC`, the outcome with HUVEC [6] and in the test with HUVEC [7] was Active. On Tubulin, this compound displayed a half-maximal inhibitory concentration (IC50) of 2500 nM. Besides, the GI50 in the test with NCI-H460 amounted to 216 nM; with DU-145 (Homo sapiens, DU-145) it was 211 nM; in the test on SK-OV-3, 152 nM. The inhibition on Tubulin (Homo sapiens) [2] was 63%. In addition, in the test on HUVEC [8], the result was inactive.
